{"source": "patent US9730890B2", "about": "“Bronchodilating beta-agonist compositions and methods” (Mylan Specialty L.P., priority 2003, dated 2017)", "test": "Decomposition rate constant (kobs) of formoterol in aqueous solution", "assay_type": "physicochemical", "details": "for rate constant (kobs) for decomposition: aqueous solution, 60° C., ionic strength 0.05", "source_text": "In the embodiments herein, the compositions have a pH of about 2.0 to about 8.0, or 2.0 to 8.0. In other embodiments, the compositions have a pH of about 4.0 to about 6.0, or 4.0 to 6.0. In other embodiments, the pH is about 4.5 to about 5.5, or 4.5 to 5.5. In certain of the above embodiments, the compositions are formulated at a pH of about 4, 4.4 or 4.6 up to about 5.5, 5.7 or 6; or 4, 4.4 or 4.6 up to 5.5, 5.7 or 6. In other embodiments, the pH is about 5.0, or 5.0. […] The rate constant (kobs) at 60° C. at a pH of 3, 4, 5 and 7 is approximately 0.62, 0.11, 0.044 and 0.55 day^-1, respectively.\nIn other of the above embodiments, the compositions further contain a buffer, including, but not limited to, citric acid/phosphate, acetate, barbital, borate, Britton-Robinson, cacodylate, citrate, collidine, formate, maleate, McIlvaine, phFosphate, Prideaux-Ward, succinate, citrate-phosphate-borate (Teorell-Stanhagen), veronal acetate, MES (2-(N-morpholino)ethanesulfonic acid), BIS-TRIS (bis(2-hydroxyethyl)imino-tris-(hydroxymethyl)methane), ADA (N-(2-acetamido)-2-iminodiacetic acid), ACES (N-(carbamoylmethyl)-2-aminoethanesulfonic acid), PIPES (piperazine-N,N′-bis(2-ethanesulfonic acid)), MOPSO (3-(N-morpholino)-2-hydroxypropanesulfonic acid), BISTRIS PROPANE (1,3-bis(tris(hydroxymethyl)methylamino)propane), BES (N,N-bis(2-hydroxyethyl)-2-aminoethanesulfonic acid), MOPS (3-(N-morpholino)propanesulfonic acid), TES (N-tris(hydroxymethyl)methyl-2-aminoethanesulfonic acid), HEPES (N-(2-hydroxyethyl)-piperazine-N′-(2-eth-anesulfonic acid), DIPSO (3-(N,N-bis(2-hydroxyethyl)amino)-2-hydroxypropan-esulfonic acid), MOBS (4-(N-morpholino)-butanesulfonic acid), TAPSO (3-(N-tris(hydroxymethyl)methylamino)-2-hydroxypropanesulfonic acid), TRIZMA® (tris(hydroxymethylaminomethane), HEPPSO(N-(2-hydroxyethyl)piperazine-N′-(2-hydroxypropanesulfonic acid), POPSO (piperazine-N,N′-bis(2-hydroxypropanesulfonic acid)), TEA (triethanolamine), EPPS (N-(2-hydroxyethyl)piperazine-N′-(3-propanesulfon-ic acid), TRICINE (N-tris(hydroxy-methyl)methylglycine), GLY-GLY (glycylglycine), BICINE (N,N-bis(2-hydroxyethyl)glycine), HEPBS (N-(2-hydroxyethyl)piperazine-N′-(4-butanesulfonic acid)), TAPS(N-tris(hydroxymethyl)methyl-3-aminopropanesulfonic acid), AMPD (2-amino-2-methyl-1,3-propanediol), and/or any other buffers known to those of skill in the art. In one embodiment, the buffer is citric acid/phosphate buffer, acetate buffer, citrate buffer or phosphate buffer. In another embodiment, the buffer is a citrate buffer (citric acid/sodium citrate). […] Buffer concentrations for use include from about 0 or 0.01 mM to about 150 mM, or 0 or 0.01 mM to 150 mM. In another embodiment, the buffer concentration is about 1 mM to about 20 mM, or 1 mM to 20 mM. In one embodiment, the buffer concentration is about 5 mM, or 5 mM. In other embodiments, the buffer concentration is about 1 mM to about 50 mM, or 1 mM to 50 mM. […] The particular buffer and buffer concentration of a given composition for long term storage provided herein may be determined empirically using standard stability assays well known to those of skill in the art (see, e.g., the Examples).\nIonic strengths of the compositions provided herein are from about 0 to about 0.4, or 0 to 0.4. […] The particular ionic strength of a given composition for long term storage provided herein may be determined empirically using standard stability assays well known to those of skill in the art (see, e.g., the Examples). […]"}
{"smiles": "COc1ccc(CC(C)NCC(O)c2ccc(O)c(NC=O)c2)cc1", "note": "(racemic) [formoterol, 2-hydroxy-5-((1RS)-1-hydroxy-2-(((1RS)-2-(p-methoxyphenyl)-1-methylethyl)amino)ethyl)formanilide]", "values": [{"measurement": "rate constant (kobs) for decomposition", "setting": "pH 3, buffer concentration 5 mM", "result": "approximately 0.62 day^-1"}, {"measurement": "rate constant (kobs) for decomposition", "setting": "pH 4, buffer concentration 5 mM", "result": "~0.11", "unit": "day⁻¹"}, {"measurement": "rate constant (kobs) for decomposition", "setting": "pH 5, buffer concentration 5 mM", "result": "~0.044", "unit": "day⁻¹"}, {"measurement": "rate constant (kobs) for decomposition", "setting": "pH 7, buffer concentration 5 mM", "result": "~0.55", "unit": "day⁻¹"}, {"measurement": "effect of buffer concentration on rate constant of decomposition", "setting": "pH region of about 4.5 to about 5.5, buffer concentration from 5 mM to 20 mM", "result": "no noticeable differences in rate constant"}]}
